This data set concerns rat. Put plainly: Intracisternal assay: convulsant response (seizure potential). The format is in vivo. The settings on record: injection of 20 micro-liters into the intracisternal cavity, amount giving a 50% seizure rate. The text has this:
Central to the instant invention was the safety benefit realized by the incorporation of the cyano group to the imidazoliummethylbiphenyl moiety of the carbapenem nucleus, as shown in Table II below. […] This difference in activity was statistically significant and allows one to anticipate a much greater CNS safety profile for the compounds depicted.
The figure reported in Table II was the amount of active compound giving a 50% seizure rate in the rat, serving as a model for humans. For each compound, different concentrations were prepared in water and for each concentration, a group of animals were given an injection of 20 micro-liters into the intracisternal cavity. The seizure response of each member of the group was noted by observation.
`CC(O)C1C(=O)N2C(C(=O)[O-])=C(c3cc(C#N)cc(-c4ccc(C[n+]5ccn(CCO)c5)cc4)c3)CC12` (centres unmarked) [R^c = CH2 CH2 OH, R' = CN]: the “CONVULSANT RESPONSE MCG/HEAD-ED50” value worked out at 100 MCG/HEAD.
As for `CC(O)C1C(=O)N2C(C(=O)[O-])=C(c3cccc(-c4ccc(C[n+]5ccn(CCO)c5)cc4)c3)CC12` (centres unmarked) [R^c = CH2 CH2 OH, R' = H], the “CONVULSANT RESPONSE MCG/HEAD-ED50” value was determined as 35 MCG/HEAD.
For the compound `CC(O)C1C(=O)N2C(C(=O)[O-])=C(c3cc(Br)cc(-c4ccc(C[n+]5ccn(C)c5)cc4)c3)CC12` (centres unmarked) [R^c = CH3, R' = Br], the “CONVULSANT RESPONSE MCG/HEAD-ED50” value was less than 12.5 MCG/HEAD.
In the case of `CC(O)C1C(=O)N2C(C(=O)[O-])=C(c3cc(C#N)cc(-c4ccc(C[n+]5ccn(C)c5)cc4)c3)CC12` (centres unmarked) [R^c = CH3, R' = CN], the “CONVULSANT RESPONSE MCG/HEAD-ED50” value is recorded as 100 MCG/HEAD.
Consider `CC(O)C1C(=O)N2C(C(=O)[O-])=C(c3cccc(-c4ccc(C[n+]5ccn(C)c5)cc4)c3)CC12` (centres unmarked) [R^c = CH3, R' = H], for which the “CONVULSANT RESPONSE MCG/HEAD-ED50” value was 35 MCG/HEAD.

Source of the values: patent publication US5192758A, “2-biphenyl-carbapenem antibacterial agents” (Merck & Co., Inc., priority 1992, dated 1993).
